The values that follow come from patent US3940382A, “1,2'-Di-N-substituted kanamycin B compounds” (Zaidan Hojin Biseibutsu Kagaku Kenkyu Kai, priority 1973, dated 1976).

Each structure is given as a SMILES string. Where only a bound is given, the exact number is not on record here.

For test [1], the system named is drug-resistant bacteria. Particulars: cited from earlier work.
Test [2] concerns Escherichia coli NIHJ. The test can be described thus: MIC, serial dilution on nutrient agar. To be noted: Escherichia coli NIHJ; nutrient agar, 37°C, 18 hours; read-out: Minimum Inhibitory Concentrations. Format: cell-based.
Test [3] has as its system Pseudomonas aeruginosa TI-13. The test can be described thus: MIC, serial dilution on nutrient agar. It is filed as cell-based. Particulars: TI13; Pseudomonas aeruginosa TI-13; nutrient agar, 37°C, 18 hours; read-out: Minimum Inhibitory Concentrations.
Test [4] deals with Escherichia coli W677. The test can be described thus: MIC, serial dilution on nutrient agar. Format: cell-based. To be noted: Escherichia coli W677; nutrient agar, 37°C, 18 hours; read-out: Minimum Inhibitory Concentrations.
In test [5] the test system is Staphylococcus aureus FDA 209P. The test is described as follows: MIC, serial dilution on nutrient agar. It is filed as cell-based. To be noted: FDA209P; Staphylococcus aureus FDA 209P; nutrient agar, 37°C, 18 hours; read-out: Minimum Inhibitory Concentrations.
Test [6] relates to Escherichia coli K-12 ML 1410. The test can be described thus: MIC, serial dilution on nutrient agar. To be noted: K12ML1410; Escherichia coli K-12 ML 1410; nutrient agar, 37°C, 18 hours; read-out: Minimum Inhibitory Concentrations. It is filed as cell-based.
Test [7] deals with Escherichia coli K-12 ML 1630. The test is described as follows: MIC, serial dilution on nutrient agar. Format: cell-based. Particulars: K12ML1630, 37°C, 18 hours, read-out: Minimum Inhibitory Concentrations. On the procedure:
The minimum inhibitory concentrations (mcg/ml) of 1,2'-di-N-[(S)-4-amino-2-hydroxybutyryl]-kanamycin B (abbreviated as 1,2'-AHB-KMB), 1,2'-di-N-[(S)-4-amino-2-hydroxybutyryl]-3',4'-dideoxykanamycin B (abbreviated as 1,2'-AHB-DKB), 1,2'-di-N-DL-isoseryl-3',4'-dideoxykanamycin B (abbreviated as 1,2'-IS-DKB) and 1,2'-di-N-DL-isoseryl-kanamycin B (abbreviated as 1,2'-IS-KMB) against various microorganisms were determined according to serial dilution method using nutrient agar medium at 37°C, the estimation being effected after 18 hours incubation. For comparison, the minimum inhibitory concentrations of kanamycin B (abbreviated as KMB) and 3',4'-dideoxykanamycin B (abbreviated as DKB) were also determined in the same manner as mentioned above.

For test [8], the system named is Escherichia coli JR66/W677. The test is described as follows: MIC, serial dilution on nutrient agar. It is filed as cell-based. To be noted: Escherichia coli JR66/W677; nutrient agar, 37°C, 18 hours; read-out: Minimum Inhibitory Concentrations.
The test system of test [9] is Klebsiella pneumoniae 22 -3038. The test is described as follows: MIC, serial dilution on nutrient agar. Format: cell-based. Particulars: 223038; Klebsiella pneumoniae 22 -3038; nutrient agar, 37°C, 18 hours; read-out: Minimum Inhibitory Concentrations.
Test [10] relates to Mycobacterium smegmatis ATCC 607. The test can be described thus: MIC, serial dilution on nutrient agar. Format: cell-based. To be noted: Mycolicibacterium smegmatis, ATCC607; Mycobacterium smegmatis ATCC 607; nutrient agar, 37°C, 18 hours; read-out: Minimum Inhibitory Concentrations.
The test system of test [11] is Klebsiella pneumoniae PCI 602. The test can be described thus: MIC, serial dilution on nutrient agar. Format: cell-based. Particulars: PCI602; Klebsiella pneumoniae PCI 602; nutrient agar, 37°C, 18 hours; read-out: Minimum Inhibitory Concentrations.
Test [12] has as its system Escherichia coli K-12 ML 1629. The test can be described thus: MIC, serial dilution on nutrient agar. Format: cell-based. To be noted: K12ML1629; Escherichia coli K-12 ML 1629; nutrient agar, 37°C, 18 hours; read-out: Minimum Inhibitory Concentrations.
In test [13] the test system is Pseudomonas aeruginosa A3. The test can be described thus: MIC, serial dilution on nutrient agar. It is filed as cell-based. To be noted: Pseudomonas aeruginosa A3; nutrient agar, 37°C, 18 hours; read-out: Minimum Inhibitory Concentrations.
The subject of test [14] is Escherichia coli LA290 R55. The test is described as follows: MIC, serial dilution on nutrient agar. It is filed as cell-based. Particulars: LA290R55, 18 h, read-out: Minimum Inhibitory Concentrations.
The subject of test [15] is Pseudomonas aeruginosa GN315. The test is described as follows: MIC, serial dilution on nutrient agar. It is filed as cell-based. Particulars: Pseudomonas aeruginosa GN315; nutrient agar, 37°C, 18 hours; read-out: Minimum Inhibitory Concentrations.
For test [16], the system named is Pseudomonas aeruginosa 99. The test is described as follows: MIC, serial dilution on nutrient agar. Format: cell-based. Particulars: Pseudomonas aeruginosa 99; nutrient agar, 37°C, 18 hours; read-out: Minimum Inhibitory Concentrations.
The test system of test [17] is Escherichia coli LA290 R64. The test is described as follows: MIC, serial dilution on nutrient agar. Format: cell-based. Particulars: LA290R64, 18 h, read-out: Minimum Inhibitory Concentrations.
In test [18] the test system is Escherichia coli K-12. The test is described as follows: MIC, serial dilution on nutrient agar. It is filed as cell-based. To be noted: K12; Escherichia coli K-12; nutrient agar, 37°C, 18 hours; read-out: Minimum Inhibitory Concentrations.
For test [19], the system named is Escherichia coli LA290 R56. The test can be described thus: MIC, serial dilution on nutrient agar. Format: cell-based. Particulars: LA290R56, 18 h, read-out: Minimum Inhibitory Concentrations.
In test [20] the test system is Pseudomonas aeruginosa No.12. The test is described as follows: MIC, serial dilution on nutrient agar. Format: cell-based. To be noted: Pseudomonas aeruginosa No.12; nutrient agar, 37°C, 18 hours; read-out: Minimum Inhibitory Concentrations.

Take `NC[C@@H]1CC[C@@H](N)[C@@H](O[C@H]2[C@H](O)[C@@H](O)[C@H](N)C[C@@H]2N)O1` [3',4'-dideoxyneamine]: the “antibacterial activity against the drug-resistant bacteria” value (“antibacterial activity” below) in test [1] is reported as “improved antibacterial activity”.
Turning to `CNC[C@H]1O[C@H](O[C@H]2[C@H](O)[C@@H](O[C@H]3O[C@H](CO)[C@@H](O)[C@H](N)[C@H]3O)[C@H](N)C[C@@H]2N)[C@H](N)C[C@@H]1O` [3'-deoxy-6'-N-methylkanamycin B], the “antibacterial activity” value in [1] was “improved antibacterial activity”.
Consider `NCC(O)C(=O)N[C@@H]1CC[C@@H](CN)O[C@@H]1O[C@H]1[C@H](O)[C@@H](O[C@H]2O[C@H](CO)[C@@H](O)[C@H](N)[C@H]2O)[C@H](NC(=O)C(O)CN)C[C@@H]1N` (mixture of isomers) [1,2'-IS-DKB, 1,2'-di-N-DL-isoseryl-3',4'-dideoxykanamycin B], for which the MIC worked out at 6.25 µg/mL in test [2]; 12.5 µg/mL in test [3]; 3.13 µg/mL in test [4]; 1.56 µg/mL in [5]; 6.25 µg/mL in test [6]; 6.25 µg/mL in test [7]. Also, the MIC amounted to 12.5 µg/mL in [8]; 12.5 µg/mL in [9]; 1.56 µg/mL in test [10]; 3.13 µg/mL in test [11]; 6.25 µg/mL in [12]; 6.25 µg/mL in test [13]. Besides, the MIC in test [14] is 6.25 µg/mL; in test [15], more than 100 µg/mL; in test [16] it was 50 µg/mL; in [17], 6.25 µg/mL; in test [18], 6.25 µg/mL; in [19], 6.25 µg/mL. In addition, the MIC in [20] worked out at 25 µg/mL.
Consider `NC[C@H]1O[C@H](O[C@H]2[C@H](O)[C@@H](O[C@H]3O[C@H](CO)[C@@H](O)[C@H](N)[C@H]3O)[C@H](N)C[C@@H]2N)[C@H](N)C[C@@H]1O` [3'-deoxykanamycin B], for which the “antibacterial activity” value in test [1] is on record as “improved antibacterial activity”.
`NC[C@H]1O[C@H](O[C@H]2[C@H](O)[C@@H](O)[C@H](N)C[C@@H]2N)[C@H](N)C[C@@H]1O` [3'-deoxyneamine]: the “antibacterial activity” value in [1] was “improved antibacterial activity”.
As for `NCC(O)C(=O)N[C@H]1[C@@H](O[C@H]2[C@H](O)[C@@H](O[C@H]3O[C@H](CO)[C@@H](O)[C@H](N)[C@H]3O)[C@H](NC(=O)C(O)CN)C[C@@H]2N)O[C@H](CN)[C@@H](O)[C@@H]1O` (mixture of isomers) [1,2'-IS-KMB, 1,2'-di-N-DL-isoseryl-kanamycin B], the MIC in [2] was found to be 6.25 µg/mL; in test [3], 12.5 µg/mL; in test [4], 3.13 µg/mL; in test [5], 3.13 µg/mL; in test [6], 6.25 µg/mL; in [7], 6.25 µg/mL. For the same molecule, the MIC in [8] is 25 µg/mL; in test [9], 12.5 µg/mL; in test [10], 1.56 µg/mL; in test [11], 3.13 µg/mL; in test [12] it was 6.25 µg/mL; in [13] it was 12.5 µg/mL. The MIC in test [14] was 6.25 µg/mL; in test [15], more than 100 µg/mL; in test [16] it was 50 µg/mL; in [17], 6.25 µg/mL; in test [18], 6.25 µg/mL; in test [19] it was 6.25 µg/mL. Moreover, the MIC in [20] came to 25 µg/mL.
Regarding `NC[C@@H]1CC[C@@H](N)[C@@H](O[C@H]2[C@H](O[C@@H]3O[C@H](CO)[C@@H](O)[C@H]3O)[C@@H](O)[C@H](N)C[C@@H]2N)O1` [3',4'-dideoxyribostamycin], the “antibacterial activity” value in test [1] is given as “improved antibacterial activity”.
Consider `NC[C@H]1O[C@H](O[C@H]2[C@H](O[C@@H]3O[C@H](CO)[C@@H](O)[C@H]3O)[C@@H](O)[C@H](N)C[C@@H]2N)[C@H](N)C[C@@H]1O` [3'-deoxyribostamycin], for which the “antibacterial activity” value in [1] is listed as “improved antibacterial activity”.
